Laboratory results: patent US11234971B2, “Methods of treating cancer comprising administration of a glucocorticoid receptor modulator and a cancer chemotherapy agent” (Corcept Therapeutics Incorporated, priority 2018, dated 2022)

Experiments:
progesterone receptor = progesterone receptor (Homo sapiens, UniProt P06401); details: cited from earlier work
[1] = tested on: OVCAR-5 human ovarian cancer cells; assay: OVCAR-5 cell growth (Cell Titer-Glo) with chemotherapy agents with or without dexamethasone and relacorilant; format: cell-based
Description: The initial cell density was chosen to be low enough to allow for several population doublings (typically 3 to 5) during the indicated incubation period. […] After 48 hours of incubation, serially diluted test agents in growth medium were added to each well. After 72 hours of culture, the plated cells and Cell Titer-Glo® (Promega G7571) reagents were brought to room temperature to equilibrate for 30 minutes. 200 μL of Cell Titer-Glo® reagent was then added to each well, the plate was shaken for two minutes, and then left to equilibrate for ten minutes. The Cell Titer-Glo® cell viability assay uses ATP levels to determine cell numbers. After this equilibration, luminescence was read on the Biotech Synergy II microplate reader. The percent control (% C) of cell growth for each test concentration was calculated relative to untreated wells. All tests were performed in quadruplicate. Individual assay plates were evaluated for appropriate signal and well-to-well variance in the control wells for quality control.

GR-controlled genes = assay: Whole blood mRNA expression (NanoString) in cancer patients of study NCT02762981, baseline vs C1D15; format: in vivo, human; details: for expression levels of COX2, DUSP1, GSK3b, MCL-1, PIK3CG and RGS-2 (mRNA): 40 cancer patients (FIG. 5B); for genes downregulated in whole blood, baseline to C1D15: 800-gene panel, relacorilant+nab-paclitaxel; for enrichment of genes shared in the sets induced by prednisone and suppressed by relacorilant / genes shared in the sets induced by prednisone and suppressed by relacorilant: top 200 genes each
Description: Blood was collected at baseline, prior to administration of relacorilant or nab-paclitaxel. Blood was also drawn in the morning, pre-dose, on cycle 1, day 15. Blood (in the amount of 2.5 milliLiters (mL)) was drawn into a PAXGene blood RNA tube (Qiagen) using a butterfly needle. The tube was sealed and gently inverted 10 times. The tube was frozen in dry ice and stored at −80° C. until RNA extraction.
Paired baseline and cycle 1, day 15 (C1D15) specimens were thawed and processed in the same batch. RNA was isolated using the PAXgene Blood RNA kit (Qiagen) using the protocol recommended by the manufacturer. RNA yield was quantified using a NanoDrop ND-2000 spectrophotometer (ThermoFisher Scientific). RNA was assessed using a custom 33-gene panel after mRNA sample preparation and hybridization using NanoString nCounter XT Assay, following the operation and maintenance instructions for the NanoString prep station and digital analyzer. Specific RNA transcripts were quantified using a Nanostring nCounter FLEX instrument (NanoString Technologies) and analyzed using nSolver 3.0. (Nanostring Technologies, Seattle Wash., USA).
Housekeeping gene pairwise correlations were determined using nSolver 3.0 (NanoString Technologies). Test genes were normalized to the housekeeping genes HPRT1, PPIB, TRAP1, EEF1A1, and TBP. Change from baseline was calculated using the RNA counts at baseline and cycle 1, day 15 as follows: Change from Baseline=(C1D15−baseline)/(baseline) Results Housekeeping Genes Selection
Calculations For FIG. 6, the normalized counts of 10 GR-controlled genes were averaged. Change from baseline of these averaged values was calculated per patient using the formula: Percent change from baseline=((average value at C1D15)−(average value at baseline))/(average value at baseline)*100Gene set enrichment statistics were calculated using the program available at the URL: Nemates.org/MA/progs/overlap_stats_prog.html
RNA isolation and quantification RNA was assessed using a custom 800-gene panel after mRNA sample preparation and hybridization using NanoString nCounter Assay, following the operation and maintenance instructions for the NanoString prep station and digital analyzer. The 800 gene panel was comprised of the Nanostring 10360™ panel plus the following 10 custom probes:
Data normalization and analysis Housekeeping gene pairwise correlations were determined using advanced analysis in nSolver 3.0 (NanoString Technologies). Test genes were normalized to the housekeeping genes selected by geNORM. […]

[2] = OVCAR-5, glucocorticoid 100 nM dexamethasone, relacorilant in the presence of the glucocorticoid
[3] = patients with progressive disease

Chain of progesterone receptor (P06401 whole entry, species assumed): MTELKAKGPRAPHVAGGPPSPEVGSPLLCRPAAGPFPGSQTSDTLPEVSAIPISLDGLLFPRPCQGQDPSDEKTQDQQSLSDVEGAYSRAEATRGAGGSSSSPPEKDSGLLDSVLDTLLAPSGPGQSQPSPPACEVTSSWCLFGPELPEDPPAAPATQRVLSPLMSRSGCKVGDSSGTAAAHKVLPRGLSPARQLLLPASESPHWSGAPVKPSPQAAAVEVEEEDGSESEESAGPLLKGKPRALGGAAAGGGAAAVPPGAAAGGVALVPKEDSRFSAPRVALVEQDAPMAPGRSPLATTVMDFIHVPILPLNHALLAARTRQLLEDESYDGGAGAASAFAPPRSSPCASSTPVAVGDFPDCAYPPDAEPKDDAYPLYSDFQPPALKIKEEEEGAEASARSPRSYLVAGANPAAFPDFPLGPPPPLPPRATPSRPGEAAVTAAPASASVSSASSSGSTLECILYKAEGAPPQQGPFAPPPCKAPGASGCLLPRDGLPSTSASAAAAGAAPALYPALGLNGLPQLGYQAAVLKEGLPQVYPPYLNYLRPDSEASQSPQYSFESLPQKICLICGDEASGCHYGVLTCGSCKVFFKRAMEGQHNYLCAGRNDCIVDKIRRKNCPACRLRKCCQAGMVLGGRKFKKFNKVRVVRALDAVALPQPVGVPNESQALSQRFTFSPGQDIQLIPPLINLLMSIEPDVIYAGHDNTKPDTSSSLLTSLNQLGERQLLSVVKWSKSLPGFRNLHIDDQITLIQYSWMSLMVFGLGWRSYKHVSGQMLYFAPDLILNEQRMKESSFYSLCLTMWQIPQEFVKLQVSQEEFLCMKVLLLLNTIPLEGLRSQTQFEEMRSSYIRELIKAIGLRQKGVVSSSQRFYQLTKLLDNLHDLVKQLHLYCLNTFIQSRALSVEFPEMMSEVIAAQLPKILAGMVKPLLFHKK

Cn1cc(S(=O)(=O)N2CCC3=Cc4c(cnn4-c4ccc(F)cc4)C[C@]3(C(=O)c3cc(C(F)(F)F)ccn3)C2)cn1 [relacorilant, (R)-(1-(4-fluorophenyl)-6-((1-methyl-1H-pyrazol-4-yl)sulfonyl)-4,4a,5,6,7,8-hexahydro-1H-pyrazolo[3,4-g]isoquinolin-4a-yl)(4-(trifluoromethyl)pyridin-2-yl)methanone]
Ki (progesterone receptor): > 10 µM | cell numbers (luminosity) in the presence of bortezumib and palbociclib ([1]; OVCAR-5, bortezumib 500 μM, palbociclib 100 μM, 100 nM dexamethasone, 300 nM relacorilant): opposed | maximal toxicity at high chemotherapy concentrations ([1]; OVCAR-5, dexamethasone, relacorilant + dexamethasone): reversed this | half-maximal potency of / sensitivity to oxaliplatin [1, 2]: restored sensitivity to oxaliplatin | maximum effect of / sensitivity to gemcitabine [1, 2]: restored sensitivity to gemcitabine | maximum effect of / sensitivity to paclitaxel [1, 2]: restored sensitivity to paclitaxel | effects of dexamethasone on response to chemotherapeutic agents ([1]; OVCAR-5, several chemotherapeutic agents): reversed the effects of dexamethasone in all cases | potency of carboplatin ([1]; OVCAR-5 grown with 100 nM dexamethasone, carboplatin titrated against increasing amounts of relacorilant): dose-dependently increased | expression levels of COX2, DUSP1, GSK3b, MCL-1, PIK3CG, RGS-2, SGK1 and STAT3 (mRNA) (GR-controlled genes; 21 cancer patients (FIG. 5A), patients who derived benefit from relacorilant+nab-paclitaxel): decreased as compared to baseline | expression levels of COX2, DUSP1, GSK3b, MCL-1, PIK3CG, RGS-2, SGK1 (mRNA) (GR-controlled genes; 21 cancer patients (FIG. 5A), patients whose cancer progressed): did not exhibit decreased levels | expression levels of COX2, DUSP1, GSK3b, MCL-1, PIK3CG and RGS-2 (mRNA) (GR-controlled genes; patients who derived benefit from relacorilant+nab-paclitaxel): decreased as compared to baseline | expression levels of COX2, DUSP1, GSK3b, MCL-1, PIK3CG and RGS-2 (mRNA) (GR-controlled genes; patients whose cancer progressed): did not exhibit decreased levels | genes downregulated in whole blood, baseline to C1D15 (GR-controlled genes; PD patients): 30 genes | genes downregulated in whole blood, baseline to C1D15 (GR-controlled genes; SD/PR/CR patients): 92 genes | normalized DUSP1 mRNA counts, baseline vs cycle 1 day 15 (GR-controlled genes; all patients, relacorilant + nab-paclitaxel, paired t-test p=0.065): not significantly different | normalized DUSP1 mRNA counts, baseline vs cycle 1 day 15 (GR-controlled genes; patients experiencing benefit (SD, PR, CR), relacorilant + nab-paclitaxel, paired t-test p=0.015): significant decrease | decrease in DUSP1 counts, baseline vs cycle 1 day 15 (GR-controlled genes; patients with progressive disease, relacorilant + nab-paclitaxel): not observed | enrichment of genes shared in the sets induced by prednisone and suppressed by relacorilant (GR-controlled genes; patients who benefited): 2.2 fold | genes shared in the sets induced by prednisone and suppressed by relacorilant (GR-controlled genes; patients who benefited, p=3×10^−30): 116 genes | enrichment of genes shared in the sets induced by prednisone and suppressed by relacorilant (GR-controlled genes; [3]): 0.7 fold | genes shared in the sets induced by prednisone and suppressed by relacorilant (GR-controlled genes; [3]): 38 genes
